The term IC50 denotes the concentration needed to halve the response being measured.

Drawing on patent US7268128B2, “1,3,5-trisubstituted-5-phenyl and 5-pyridyl pyrazolopyrimidinone derivatives having PDE7 inhibiting action” (Ausbio Pharma Co., Ltd., priority 2001, dated 2007), this text covers IC50 for 28 compounds.

SMILES strings stand for the structures. Structures can show the parent of a compound that is named as a salt.

This test addresses T1, PDE7 (type VII phosphodiesterase) (Homo sapiens, UniProt Q13946).
T1 construct: endogenous in cells; host or cells: MOLT-4 (ATCC CRL-1582), soluble fraction, HiTrapQ anion-exchange fraction
The test is described as follows: PDE7 inhibiting activity (3H-cAMP hydrolysis, active fraction from MOLT-4 cells). Format: biochemical. The settings on record: PDE7 fraction from MOLT-4 cells, 0.064 μM cAMP, 10 μM rolipram present, 2 hours at 25° C.; read-out: IC50 values for phosphodiesterase inhibiting activities (PDE7). Put shortly:
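PDE7 from MOLT-4 cell soluble fraction, HiTrapQ NaCl-gradient purified. Compounds reacted 2 h at 25° C in 20 mM tris-HCl pH 7.5, 1 mM MgCl2, 0.1 μCi 3H-cAMP (0.064 μM cAMP), 10 μM rolipram, 5′-nucleotidase; QAE-Sephadex-separated supernatant counted.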

T1 sequence (Q13946 whole entry): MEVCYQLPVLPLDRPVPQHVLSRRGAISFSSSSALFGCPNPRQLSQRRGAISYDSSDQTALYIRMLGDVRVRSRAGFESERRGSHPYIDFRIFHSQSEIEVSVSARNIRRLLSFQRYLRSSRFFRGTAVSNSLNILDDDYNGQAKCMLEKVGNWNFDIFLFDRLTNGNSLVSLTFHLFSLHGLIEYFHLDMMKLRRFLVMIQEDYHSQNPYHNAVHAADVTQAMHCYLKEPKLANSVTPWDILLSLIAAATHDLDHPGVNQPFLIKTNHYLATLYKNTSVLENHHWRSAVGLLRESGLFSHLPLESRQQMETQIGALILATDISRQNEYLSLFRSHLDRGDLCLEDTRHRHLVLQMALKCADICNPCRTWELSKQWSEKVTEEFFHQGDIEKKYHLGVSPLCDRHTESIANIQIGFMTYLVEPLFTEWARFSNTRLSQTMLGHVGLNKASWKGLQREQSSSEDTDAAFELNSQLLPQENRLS

In the case of `COc1cc(S(=O)(=O)N2CCCNCC2)ccc1-c1nc2c(C)nn(C3CCCCC3)c2c(=O)[nH]1` [Example 203, 1-Cyclohexyl-5-[4-(1,4-diazepan-1-ylsulfonyl)-2-methoxyphenyl]-3-methyl-1,6-dihydro-7H-pyrazolo[4,3-d]pyrimidin-7-one monomethanesulfonate], the IC50 was at most 1000 nM.
Consider `CNS(=O)(=O)c1ccc(-c2nc3c(c(C4CCCCC4)nn3C)c(=O)[nH]2)c(OC)c1` [Example 204, 4-(3-Cyclohexyl-1-methyl-4-oxo-4,5-dihydro-1H-pyrazolo[3,4-d]pyrimidin-6-yl)-3-methoxy-N-methylbenzenesulfonamide], for which the IC50 is at most 1000 nM.
The same measure for `CCn1nc(C2CCCCC2)c2c(=O)[nH]c(-c3ccc(S(=O)(=O)N4CCC(O)CC4)cc3OC)nc21` [Example 207, 3-Cyclohexyl-1-ethyl-6-{4-[(4-hydroxy-1-piperidinyl)sulfonyl]-2-methoxyphenyl}-1,5-dihydro-4H-pyrazolo[3,4-d]pyrimidin-4-one]: at most 1000 nM.
`CCn1nc(C2CCCCC2)c2c(=O)[nH]c(-c3ccc(S(=O)(=O)N4CCCN(C)CC4)cc3OC)nc21` [Example 208, 3-Cyclohexyl-1-ethyl-6-{2-methoxy-4-[(4-methyl-1,4-diazepan-1-yl)sulfonyl]phenyl}-1,5-dihydro-4H-pyrazolo[3,4-d]pyrimidin-4-one]: the IC50 was at most 1000 nM.
The same measure for `CCn1nc(C2CCCCC2)c2c(=O)[nH]c(-c3ccc(S(=O)(=O)N4CCCNCC4)cc3OC)nc21` [Example 209, 3-Cyclohexyl-6-[4-(1,4-diazepan-1-ylsulfonyl)-2-methoxyphenyl]-1-ethyl-1,5-dihydro-4H-pyrazolo[3,4-d]pyrimidin-4-one]: at most 1000 nM; for `COc1cc(S(=O)(=O)N(C)CCN)ccc1-c1nc2c(C)nn(C3CCCCC3)c2c(=O)[nH]1` [Example 210-1, N-(2-aminoethyl)-4-(1-cyclohexyl-3-methyl-7-oxo-6,7-dihydro-1H-pyrazolo[4,3-d]pyrimidin-5-yl)-3-methoxy-N-methylbenzenesulfonamide]: at most 1000 nM.
As for `CNCCNS(=O)(=O)c1ccc(-c2nc3c(C)nn(C4CCCCC4)c3c(=O)[nH]2)c(OC)c1` [Example 210-2, 4-(1-Cyclohexyl-3-methyl-7-oxo-6,7-dihydro-1H-pyrazolo[4,3-d]pyrimidin-5-yl)-3-methoxy-N-[2-(methylamino)ethyl]benzenesulfonamide], the figure is at most 1000 nM.
As for `COc1cc(S(=O)(=O)NCCN(C)C)ccc1-c1nc2c(C)nn(C3CCCCC3)c2c(=O)[nH]1` [Example 211, 4-(1-Cyclohexyl-3-methyl-7-oxo-6,7-dihydro-1H-pyrazolo[4,3-d]pyrimidin-5-yl)-N-[2-(dimethylamino)ethyl]-3-methoxybenzenesulfonamide], the figure is at most 1000 nM; as for `CNCCN(C)S(=O)(=O)c1ccc(-c2nc3c(C)nn(C4CCCCC4)c3c(=O)[nH]2)c(OC)c1` [Example 212, 4-(1-Cyclohexyl-3-methyl-7-oxo-6,7-dihydro-1H-pyrazolo[4,3-d]pyrimidin-5-yl)-3-methoxy-N-methyl-N-[2-(methylamino)ethyl]benzenesulfonamide], at most 1000 nM.
For `COc1cc(S(=O)(=O)N(C)CCO)ccc1-c1nc2c(C)nn(C3CCCCC3)c2c(=O)[nH]1` [Example 213, 4-(1-Cyclohexyl-3-methyl-7-oxo-6,7-dihydro-1H-pyrazolo[4,3-d]pyrimidin-5-yl)-N-(2-hydroxyethyl)-3-methoxy-N-methylbenzenesulfonamide], the IC50 is at most 1000 nM.
The same measure for `COc1cc(S(=O)(=O)N2CCN(C)CC2)ccc1-c1nc2c(C)nn(C3CCCCC3)c2c(=O)[nH]1` [Example 214, 1-Cyclohexyl-5-{2-methoxy-4-[(4-methyl-1-piperazinyl)sulfonyl]phenyl}-3-methyl-1,6-dihydro-7H-pyrazolo[4,3-d]pyrimidin-7-one]: at most 1000 nM; for `CNCCCN(C)S(=O)(=O)c1ccc(-c2nc3c(C)nn(C4CCCCC4)c3c(=O)[nH]2)c(OC)c1` [Example 215, 4-(1-Cyclohexyl-3-methyl-7-oxo-6,7-dihydro-1H-pyrazolo[4,3-d]pyrimidin-5-yl)-3-methoxy-N-methyl-N-[3-(methylamino)propyl]benzenesulfonamide]: at most 1000 nM.
With `COc1cc(S(=O)(=O)N2CCN(CCO)CC2)ccc1-c1nc2c(C)nn(C3CCCCC3)c2c(=O)[nH]1` [Example 216, 1-Cyclohexyl-5-(4-{[4-(2-hydroxyethyl)-1-piperazinyl]sulfonyl}-2-methoxyphenyl)-3-methyl-1,6-dihydro-7H-pyrazolo[4,3-d]pyrimidin-7-one], the IC50 was at most 1000 nM.
In the case of `COc1cc(S(=O)(=O)N2CCNCC2)ccc1-c1nc2c(C)nn(C3CCCCC3)c2c(=O)[nH]1` [Example 217, 1-Cyclohexyl-5-[2-methoxy-4-(1-piperazinylsulfonyl)phenyl]-3-methyl-1,6-dihydro-7H-pyrazolo[4,3-d]pyrimidin-7-one], the IC50 was at most 1000 nM.
Regarding `CCN1CCN(S(=O)(=O)c2ccc(-c3nc4c(C)nn(C5CCCCC5)c4c(=O)[nH]3)c(OC)c2)CC1` [Example 218, 1-Cyclohexyl-5-{4-[(4-ethyl-1-piperazinyl)sulfonyl]-2-methoxyphenyl}-3-methyl-1,6-dihydro-7H-pyrazolo[4,3-d]pyrimidin-7-one], the IC50 is at most 1000 nM.
Take `COc1cc(S(=O)(=O)NC2CCNCC2)ccc1-c1nc2c(C)nn(C3CCCCC3)c2c(=O)[nH]1` [Example 220, 4-(1-Cyclohexyl-3-methyl-7-oxo-6,7-dihydro-1H-pyrazolo[4,3-d]pyrimidin-5-yl)-3-methoxy-N-(4-piperidinyl)benzenesulfonamide monohydrochloride]: the IC50 is at most 1000 nM.
As for `CNC1CCN(S(=O)(=O)c2ccc(-c3nc4c(C)nn(C5CCCCC5)c4c(=O)[nH]3)c(OC)c2)CC1` [Example 222, 1-Cyclohexyl-5-(2-methoxy-4-{[4-(methylamino)-1-piperidinyl]sulfonyl}phenyl)-3-methyl-1,6-dihydro-7H-pyrazolo[4,3-d]pyrimidin-7-one], the figure is at most 1000 nM; as for `COc1cc(NC2CCNCC2)ccc1-c1nc2c(C)nn(C3CCCCC3)c2c(=O)[nH]1` [Example 224, 1-Cyclohexyl-5-[2-methoxy-4-(4-piperidinylamino)phenyl]-3-methyl-1,6-dihydro-7H-pyrazolo[4,3-d]pyrimidin-7-one], at most 10 nM; as for `COCCNc1ccc(-c2nc3c(C)nn(C4CCCCC4)c3c(=O)[nH]2)c(OC)c1` [Example 225, 1-Cyclohexyl-5-{2-methoxy-4-[(2-methoxyethyl)amino]phenyl}-3-methyl-1,6-dihydro-7H-pyrazolo[4,3-d]pyrimidin-7-one], at most 10 nM.
Consider `COc1cc(/C=C/C(=O)O)ccc1-c1nc2c(C)nn(C3CCCCC3)c2c(=O)[nH]1` [Example 227, (2E)-3-[4-(1-cyclohexyl-3-methyl-7-oxo-6,7-dihydro-1H-pyrazolo[4,3-d]pyrimidin-5-yl)-3-methoxyphenyl]-2-propenic acid], for which the IC50 is at most 10 nM.
As for `COc1cc(CCC(=O)O)ccc1-c1nc2c(C)nn(C3CCCCC3)c2c(=O)[nH]1` [Example 229, 3-[4-(1-Cyclohexyl-3-methyl-7-oxo-6,7-dihydro-1H-pyrazolo[4,3-d]pyrimidin-5-yl)-3-methoxyphenyl]propanic acid], the figure is at most 1000 nM.
The same measure for `COc1cc(NCCN(C)C)ccc1-c1nc2c(C)nn(C3CCCCC3)c2c(=O)[nH]1` [Example 230, 1-Cyclohexyl-5-(4-{[2-(dimethylamino)ethyl]amino}-2-methoxyphenyl)-3-methyl-1,6-dihydro-7H-pyrazolo[4,3-d]pyrimidin-7-one]: at most 10 nM.
As to `COc1cc(NC2CCN(C(C)=O)CC2)ccc1-c1nc2c(C)nn(C3CCCCC3)c2c(=O)[nH]1` [Example 231, 5-{4-[(1-Acetyl-4-piperidinyl)amino]-2-methoxyphenyl}-1-cyclohexyl-3-methyl-1,6-dihydro-7H-pyrazolo[4,3-d]pyrimidin-7-one], the IC50 was at most 1000 nM.
As for `COc1cc(NC2CCN(C)CC2)ccc1-c1nc2c(C)nn(C3CCCCC3)c2c(=O)[nH]1` [Example 232, 1-Cyclohexyl-5-{2-methoxy-4-[(1-methyl-4-piperidinyl)amino]phenyl}-3-methyl-1,6-dihydro-7H-pyrazolo[4,3-d]pyrimidin-7-one], the figure is at most 10 nM; as for `COc1cc(CN2CCN(C)CC2)ccc1-c1nc2c(C)nn(C3CCCCC3)c2c(=O)[nH]1` [Example 234, 1-Cyclohexyl-5-{2-methoxy-4-[(4-methyl-1-piperazinyl)methyl]phenyl}-3-methyl-1,6-dihydro-7H-pyrazolo[4,3-d]pyrimidin-7-one], at most 1000 nM.
The same measure for `COc1cc(CN2CCOCC2)ccc1-c1nc2c(C)nn(C3CCCCC3)c2c(=O)[nH]1` [Example 235, 1-Cyclohexyl-5-[2-methoxy-4-(4-morpholinylmethyl)phenyl]-3-methyl-1,6-dihydro-7H-pyrazolo[4,3-d]pyrimidin-7-one]: at most 1000 nM; for `COc1cc(CN2CCC(O)CC2)ccc1-c1nc2c(C)nn(C3CCCCC3)c2c(=O)[nH]1` [Example 236, 1-Cyclohexyl-5-{4-[(4-hydroxy-1-piperidinyl)methyl]-2-methoxyphenyl}-3-methyl-1,6-dihydro-7H-pyrazolo[4,3-d]pyrimidin-7-one]: at most 1000 nM.
The same measure for `COCCNCc1ccc(-c2nc3c(C)nn(C4CCCCC4)c3c(=O)[nH]2)c(OC)c1` [Example 237, 1-Cyclohexyl-5-(2-methoxy-4-{[(2-methoxyethyl)amino]methyl}phenyl)-3-methyl-1,6-dihydro-7H-pyrazolo[4,3-d]pyrimidin-7-one]: at most 1000 nM.
